Source: patent US20010053350A1, “Cosmetic composition comprising N-ethyloxycarbonyl-4-amino-phenol and arbutin or its derivatives and/or ellagic acid or its derivatives” (L'OREAL, priority 1999, published 2001)
In brackets after ≈: the same amount, converted by molar mass.

Tests used:
[1] = tested on: fungal tyrosinase; test: Inhibition of the activity of fungal tyrosinase in vitro (absorbance at 475 nm, L-tyrosine/L-dopa); type: biochemical; settings: for molar concentration at which an inhibition figure of 25% was observed: fungal tyrosinase, phosphate buffer, solvent ethanol (C1), water (C2)
Protocol: This test consisted in measuring the absorbance (optical density OD) at 475 nm, as a function of time, for each of the following active depigmenting principles:
N-ethyloxycarbonyl-4-para-aminophenol arbutin in solution (at different concentrations) in an appropriate solvent in the presence of a phosphate buffer, 1 ml of L-tyrosine at 2.0×10^−3 M in a phosphate buffer, 0.1 ml of L-dopa at 1.0×10^−4 M in a phosphate buffer and 50 μl of 1 g/l fungal tyrosinase solution in a phosphate buffer, compared with a control consisting of the solvent used, at the same concentration in the phosphate buffer. Percentage inhibition was subsequently determined by the following equation: [formula]
Subsequently, N-ethyloxycarbonyl-4-para-aminophenol and arbutin were mixed in concentrations C1 and C2 and N-ethyloxycarbonyl-4-para-aminophenol and ellagic acid were mixed in respective concentrations C1 and C3.

[2] = Upper solubility limit in the test solvent (DMSO); type: physicochemical; settings: organic solvent or mixture

Row | Compound | molar concentration at which an inhibition figure of 25% was observed [1] | solubility [2] | inhibitory effect on tyrosinase activity ([1]; at concentration C3=1.35×10^−4 M (solubility limit in DMSO))
1 | Oc1ccc(O)cc1 [hydroquinone] | 80 µM |  | 
2 | O=c1oc2c(O)c(O)cc3c(=O)oc4c(O)c(O)cc1c4c23 [ellagic acid] |  | 135 µM (≈ 40.8 µg/mL) | no inhibitory effect
3 | arbutin | 333 µM |  | 
4 | CC(C)CCC[C@@H](C)[C@H]1CC[C@H]2[C@@H]3CC=C4C[C@@H](OC(=O)Nc5ccc(O)cc5)CC[C@]4(C)[C@H]3CC[C@]12C [N-cholesteryloxycarbonyl-4-para-aminophenol] | 66.7 µM |  | 
5 | CCOC(=O)Nc1ccc(O)cc1 [N-ethyloxycarbonyl-4-para-aminophenol] | 125 µM |  | 
